Results reported in ChEMBL document CHEMBL3045621, “Synthesis and Structure-activity Relationships of Herbicidal Thiophene Sulfonylurea Compounds” (J Pestic Sci, 1997).

Assays:
[1] = tested on: Schoenoplectiella juncoides; experiment: Herbicidal activity against Schoenoplectiella juncoides assessed as dose required to cause sufficient herbicidal activity after 5 to 7 days; format: functional
[2] = tested on: Oryza sativa; experiment: Toxicity in two leaf stage of Oryza sativa var. Nihonbare (rice) assessed as dose required to selectivity to Oryza sativa; format: organism-based; conditions: in vivo
[3] = tested on: Sagittaria pygmaea; experiment: Herbicidal activity against Sagittaria pygmaea assessed as dose required to cause sufficient herbicidal activity after 5 to 7 days; format: functional
[4] = tested on: Echinochloa oryzicola; experiment: Herbicidal activity against Echinochloa oryzicola assessed as dose required to cause sufficient herbicidal activity; format: functional

Q: Which results are given for `COc1nc(NC(=O)NS(=O)(=O)c2csnc2COCCF)nc(OC)n1`?
A: MED [1]: 1.25 g/acre; MED [2]: > 0.313 g/acre; MED [3]: 0.313 g/acre; MED [4]: 5 g/acre

Q: How did the MED [2] turn out when `COc1cc(OC)nc(NC(=O)NS(=O)(=O)c2sccc2C[N+](=O)[O-])n1` was run?
A: 0.625 g/acre

Q: How did the MED [1] turn out when `COc1nc(NC(=O)NS(=O)(=O)c2ccoc2COCCF)nc(OC)n1` was run?
A: 0.625 g/acre

Q: What about the MED [2] of the same compound?
A: 0.313 g/acre

Q: What about the MED [3] of the same compound?
A: 0.156 g/acre

Q: What about the MED [4] of the same compound?
A: 1.25 g/acre

Q: With `COc1nc(NC(=O)NS(=O)(=O)c2c(COCCF)cnn2C)nc(OC)n1` as the compound, how does the MED [1] read?
A: 0.313 g/acre

Q: What about the MED [2] of the same compound?
A: 1.25 g/acre

Q: What about the MED [4] of the same compound?
A: 0.625 g/acre

Q: `COc1nc(NC(=O)NS(=O)(=O)c2scnc2COCCF)nc(OC)n1` was tested. Which MED [1] did it give?
A: 2.5 g/acre

Q: And the MED [2]?
A: 2.5 g/acre

Q: What about the MED [3] of the same compound?
A: 2.5 g/acre

Q: And the MED [4]?
A: 2.5 g/acre

Q: With `COc1nc(NC(=O)NS(=O)(=O)c2snc(C)c2COCCF)nc(OC)n1` as the compound, how does the MED [1] read?
A: 1.25 g/acre

Q: What about the MED [2] of the same compound?
A: 2.5 g/acre

Q: What about the MED [3] of the same compound?
A: 1.25 g/acre

Q: What about the MED [4] of the same compound?
A: 1.25 g/acre

Q: Which MED [1] does the source give for `COc1nc(NC(=O)NS(=O)(=O)c2ccccc2COCCF)nc(OC)n1` here?
A: 40 g/acre

Q: And the MED [2]?
A: 2.5 g/acre

Q: What about the MED [3] of the same compound?
A: 10 g/acre

Q: And the MED [4]?
A: 40 g/acre

Q: Which MED [1] does the source give for `COc1nc(NC(=O)NS(=O)(=O)c2ccc3ccccc3c2COCCF)nc(OC)n1` here?
A: <2.5 g/acre

Q: What about the MED [2] of the same compound?
A: < 2.5 g/acre

Q: What about the MED [3] of the same compound?
A: <2.5 g/acre

Q: And the MED [4]?
A: <2.5 g/acre

Q: Which MED [1] does the source give for `COc1nc(NC(=O)NS(=O)(=O)c2sc3ccccc3c2COCCF)nc(OC)n1` here?
A: <2.5 g/acre

Q: What about the MED [2] of the same compound?
A: < 2.5 g/acre

Q: And the MED [3]?
A: <2.5 g/acre

Q: What about the MED [4] of the same compound?
A: <2.5 g/acre

Q: `COc1nc(NC(=O)NS(=O)(=O)Cc2sccc2COCCF)nc(OC)n1` was tested. Which MED [1] did it give?
A: 20 g/acre

Q: What about the MED [2] of the same compound?
A: < 2.5 g/acre

Q: What about the MED [3] of the same compound?
A: 20 g/acre

Q: And the MED [4]?
A: 80 g/acre

Q: What does the source list for `COc1cc(OC)nc(NC(=O)NS(=O)(=O)c2sccc2COCC(F)F)n1`?
A: MED [1]: 0.0781 g/acre; MED [2]: 0.312 g/acre; MED [3]: 0.0391 g/acre; MED [4]: 1.25 g/acre

Q: Which results are given for `COc1cc(OC)nc(NC(=O)NS(=O)(=O)c2sccc2COCCF)n1`?
A: MED [1]: 0.0391 g/acre; MED [2]: 0.0781 g/acre; MED [3]: 0.0391 g/acre; MED [4]: 0.313 g/acre

Q: Which results are given for `COc1cc(OC)nc(NC(=O)NS(=O)(=O)c2sccc2COCC(F)(F)Cl)n1`?
A: MED [1]: 2.5 g/acre; MED [2]: 1.25 g/acre; MED [4]: 5 g/acre

Q: For `COc1cc(OC)nc(NC(=O)NS(=O)(=O)c2ccsc2COCCF)n1`, which MED [1] is on record?
A: 0.0781 g/acre

Q: What about the MED [2] of the same compound?
A: 0.313 g/acre

Q: Which MED [1] does the source give for `COc1cc(OC)nc(NC(=O)NS(=O)(=O)c2cscc2COCCF)n1` here?
A: 0.156 g/acre

Q: And the MED [2]?
A: 0.625 g/acre

Q: What about the MED [3] of the same compound?
A: 0.0781 g/acre

Q: What does the source list for `COc1cc(C)nc(NC(=O)NS(=O)(=O)c2sccc2COCCF)n1`?
A: MED [1]: 0.0391 g/acre; MED [2]: 0.156 g/acre; MED [3]: 0.0391 g/acre; MED [4]: 0.0195 g/acre

Q: How did the MED [2] turn out when `Cc1cc(C)nc(NC(=O)NS(=O)(=O)c2sccc2COCCF)n1` was run?
A: 0.156 g/acre

Q: `COc1cc(Cl)nc(NC(=O)NS(=O)(=O)c2sccc2COCCF)n1` was tested. Which MED [1] did it give?
A: 0.156 g/acre

Q: And the MED [2]?
A: 0.625 g/acre

Q: What about the MED [3] of the same compound?
A: 0.313 g/acre

Q: What about the MED [4] of the same compound?
A: 0.156 g/acre

Q: For `COc1cc(OCC(F)(F)F)nc(NC(=O)NS(=O)(=O)c2sccc2COCCF)n1`, which MED [1] is on record?
A: 10 g/acre

Q: What about the MED [2] of the same compound?
A: 5 g/acre

Q: And the MED [3]?
A: 2.5 g/acre

Q: And the MED [4]?
A: 20 g/acre

Q: For `O=C(Nc1nc(OC(F)F)cc(OC(F)F)n1)NS(=O)(=O)c1sccc1COCCF`, which MED [1] is on record?
A: 5 g/acre

Q: And the MED [2]?
A: 5 g/acre

Q: And the MED [3]?
A: 5 g/acre

Q: What about the MED [4] of the same compound?
A: 5 g/acre

Q: With `COc1nc(NC(=O)NS(=O)(=O)c2sccc2COCCF)nc(OC)n1` as the compound, how does the MED [2] read?
A: 0.313 g/acre

Q: What about the MED [4] of the same compound?
A: 5 g/acre

Q: `COc1nc(C)nc(NC(=O)NS(=O)(=O)c2sccc2COCCF)n1` was tested. Which MED [1] did it give?
A: 0.313 g/acre

Q: And the MED [2]?
A: 0.0781 g/acre

Q: And the MED [3]?
A: 0.625 g/acre

Q: And the MED [4]?
A: 0.313 g/acre

Q: How did the MED [1] turn out when `COCCOCc1ccsc1S(=O)(=O)NC(=O)Nc1nc(OC)cc(OC)n1` was run?
A: 0.313 g/acre

Q: What about the MED [2] of the same compound?
A: 0.156 g/acre

Q: What about the MED [3] of the same compound?
A: 0.313 g/acre

Q: Which MED [1] does the source give for `COc1cc(OC)nc(NC(=O)NS(=O)(=O)c2sccc2COCCCl)n1` here?
A: 0.156 g/acre

Q: What about the MED [2] of the same compound?
A: 0.625 g/acre

Q: What about the MED [3] of the same compound?
A: 0.156 g/acre

Q: How did the MED [2] turn out when `COc1cc(OC)nc(NC(=O)NS(=O)(=O)c2sccc2COCCCCl)n1` was run?
A: 0.313 g/acre

Q: What about the MED [4] of the same compound?
A: 1.25 g/acre

Q: How did the MED [1] turn out when `COc1cc(OC)nc(NC(=O)NS(=O)(=O)c2sccc2COCC(F)(F)F)n1` was run?
A: 0.156 g/acre

Q: And the MED [2]?
A: 1.25 g/acre

Q: What about the MED [3] of the same compound?
A: 0.156 g/acre

Q: And the MED [4]?
A: 2.5 g/acre

Q: `COc1cc(OC)nc(NC(=O)NS(=O)(=O)c2sccc2COCC(F)(F)C(F)(F)F)n1` was tested. Which MED [1] did it give?
A: 1.25 g/acre

Q: And the MED [2]?
A: 0.625 g/acre

Q: And the MED [3]?
A: 2.5 g/acre

Q: And the MED [4]?
A: 5 g/acre

Q: What does the source list for `COc1cc(OC)nc(NC(=O)NS(=O)(=O)c2sccc2COCC(F)(F)C(F)(F)C(F)(F)F)n1`?
A: MED [1]: 20 g/acre; MED [2]: 0.625 g/acre; MED [3]: 10 g/acre; MED [4]: 10 g/acre

Q: Which results are given for `COc1cc(OC)nc(NC(=O)NS(=O)(=O)c2sccc2COC(C)C(F)(F)F)n1` (stereo not drawn)?
A: MED [1]: 2.5 g/acre; MED [2]: 1.25 g/acre; MED [4]: 5 g/acre

Q: What does the source list for `COc1cc(OC)nc(NC(=O)NS(=O)(=O)c2sccc2COC(C)(C)C(F)(F)F)n1`?
A: MED [1]: 1.25 g/acre; MED [2]: 2.5 g/acre; MED [3]: 2.5 g/acre; MED [4]: 20 g/acre

Q: What does the source list for `COc1cc(OC)nc(NC(=O)NS(=O)(=O)c2sccc2COC(CF)CF)n1`?
A: MED [2]: 0.625 g/acre; MED [3]: 0.313 g/acre; MED [4]: 1.25 g/acre

Q: For `COc1cc(OC)nc(NC(=O)NS(=O)(=O)c2sccc2COCCCF)n1`, which MED [1] is on record?
A: 0.313 g/acre

Q: What about the MED [2] of the same compound?
A: 0.625 g/acre

Q: What about the MED [3] of the same compound?
A: 0.156 g/acre

Q: And the MED [4]?
A: 0.313 g/acre

Q: How did the MED [1] turn out when `COc1cc(OC)nc(NC(=O)NS(=O)(=O)c2sccc2CN(C)C)n1` was run?
A: 10 g/acre

Q: And the MED [3]?
A: 10 g/acre

Q: And the MED [4]?
A: 20 g/acre

Q: For `CCN(CC)Cc1ccsc1S(=O)(=O)NC(=O)Nc1nc(OC)cc(OC)n1`, which MED [2] is on record?
A: 0.625 g/acre

Q: What about the MED [4] of the same compound?
A: 5 g/acre

Q: Which results are given for `COc1cc(OC)nc(NC(=O)NS(=O)(=O)c2sccc2Cn2cccn2)n1`?
A: MED [1]: 1.25 g/acre; MED [2]: 0.625 g/acre; MED [4]: 5 g/acre

Q: For `COCc1ccsc1S(=O)(=O)NC(=O)Nc1nc(OC)cc(OC)n1`, which MED [1] is on record?
A: 0.0391 g/acre

Q: And the MED [2]?
A: 0.0781 g/acre

Q: What about the MED [3] of the same compound?
A: 0.0195 g/acre

Q: For `COc1cc(OC)nc(NC(=O)NS(=O)(=O)c2sccc2CC#N)n1`, which MED [1] is on record?
A: 0.156 g/acre

Q: What about the MED [2] of the same compound?
A: 0.0391 g/acre

Q: What about the MED [4] of the same compound?
A: 0.625 g/acre

Q: With `COc1cc(OC)nc(NC(=O)NS(=O)(=O)c2sccc2CSC)n1` as the compound, how does the MED [2] read?
A: 0.156 g/acre

Q: What about the MED [3] of the same compound?
A: 0.0195 g/acre

Q: What about the MED [4] of the same compound?
A: 0.313 g/acre

Q: With `CNC(=O)Cc1ccsc1S(=O)(=O)NC(=O)Nc1nc(OC)cc(OC)n1` as the compound, how does the MED [1] read?
A: 0.625 g/acre

Q: And the MED [2]?
A: 1.25 g/acre

Q: What about the MED [3] of the same compound?
A: 0.313 g/acre

Q: What does the source list for `COc1cc(OC)nc(NC(=O)NS(=O)(=O)c2sccc2COCCO)n1`?
A: MED [1]: 0.625 g/acre; MED [2]: 0.313 g/acre; MED [4]: 0.625 g/acre

Q: `CCOC(=O)COCc1ccsc1S(=O)(=O)NC(=O)Nc1nc(OC)cc(OC)n1` was tested. Which MED [2] did it give?
A: 1.25 g/acre
